Active and inactive are the calls of the source. The rule behind the calls is not given here.

The term mortality denotes the percentage killed.

For assay [1], the system named is Tribolium confusum. Nature of the assay: Insecticidal activity against adult Tribolium confusum (confused flour beetle) in broken wheat assessed as mortality at 11.3 microl/L air at 85% EC formulation applied as fumes for 72 hr measured after 14 days by fumigation bioassay. It counts as functional.
Assay [2] concerns Sitophilus oryzae. Nature of the assay: Insecticidal activity against adult Sitophilus oryzae (rice weevil) in wheat grain assessed as mortality at 9.4 microl/L air at 85% EC formulation applied as fumes for 72 hr measured after 7 days by fumigation bioassay. The format is functional.
For assay [3], the system named is Sitophilus oryzae. The assay is described as follows: Insecticidal activity against adult Sitophilus oryzae (rice weevil) in wheat grain assessed as mortality at 85% EC dry formulation applied as fumes for 24 hr measured after 7 days by fumigation bioassay. The format is functional.
Assay [4] has as its system Tribolium confusum. The assay is described as follows: Insecticidal activity against larvae of Tribolium confusum (confused flour beetle) in broken wheat assessed as mortality at 9.4 microl/L air at 85% EC formulation applied as fumes for 72 hr measured after 14 days by fumigation bioassay. The format is functional.
Assay [5] has as its system Plodia interpunctella. The assay is described as follows: Insecticidal activity against larvae of Plodia interpunctella (Indian meal moth ) in wheat grain assessed as mortality at 85% EC wettable formulation applied as fumes for 72 hr measured after 7 days by fumigation bioassay. It counts as functional.
Assay [6] concerns Tribolium confusum. Nature of the assay: Insecticidal activity against larvae of Tribolium confusum (confused flour beetle) in broken wheat assessed as mortality at 85% EC dry formulation applied as fumes for 72 hr measured after 14 days by fumigation bioassay. It counts as functional.
Assay [7] deals with Sitophilus oryzae. Nature of the assay: Insecticidal activity against adult Sitophilus oryzae (rice weevil) in wheat grain assessed as mortality at 85% EC wettable formulation fumigated for 72 hr applied as fumes after 7 days by fumigation bioassay. The format is functional.
Assay [8] has as its system Tribolium confusum. Nature of the assay: Insecticidal activity against third-instar larval stage of Tribolium confusum (confused flour beetle) assessed as change in the integument colour to dark in the middle area with slight effect toward both ends applied as vapour measured after 24 hr by light microscopic analysis. The format is functional, organism-based.
Assay [9] concerns Plodia interpunctella. The assay is described as follows: Insecticidal activity against larvae of Plodia interpunctella (Indian meal moth ) in wheat grain assessed as mortality at 85% EC dry formulation applied as fumes for 24 hr measured after 7 days by fumigation bioassay. It counts as functional.
Assay [10] has as its system Sitophilus oryzae. The assay is described as follows: Insecticidal activity against adult Sitophilus oryzae (rice weevil) in wheat grain assessed as mortality at 4.3 microl/L air at 85% EC formulation applied as fumes for 72 hr measured after 7 days by fumigation bioassay. It counts as functional.
Assay [11] deals with Tribolium confusum. Nature of the assay: Insecticidal activity against larvae of Tribolium confusum (confused flour beetle) in broken wheat assessed as mortality at 85% EC wettable formulation applied as fumes for 72 hr measured after 14 days by fumigation bioassay. The format is functional.
Assay [12] has as its system Tribolium confusum. Nature of the assay: Insecticidal activity against larvae of Tribolium confusum (confused flour beetle) in broken wheat assessed as mortality at 11.3 microl/L air at 85% EC formulation applied as fumes for 72 hr measured after 14 days by fumigation bioassay. It counts as functional.
Assay [13] deals with Tribolium confusum. The assay is described as follows: Insecticidal activity against third-instar larval stage of Tribolium confusum (confused flour beetle) assessed as vacuolization of mitochondrial matrix, nucleus with well distributed chromatin, enlarged mitochondria with few cristae, reduced electron density, matrix rarefaction in the epithelial cells of epidermal layer in the integument at LC50 applied as fumes measured after 24 hr by electron microscopic analysis. It counts as functional, organism-based. The following applies: Epithelial cell.

Assay [14] relates to Sitophilus oryzae. The assay is described as follows: Insecticidal activity against adult Sitophilus oryzae (rice weevil) in wheat grain assessed as mortality at 11.3 microl/L air at 85% EC formulation applied as fumes for 72 hr measured after 7 days by fumigation bioassay. It counts as functional.
In assay [15] the test system is Tribolium confusum. Nature of the assay: Insecticidal activity against larvae of Tribolium confusum (confused flour beetle) in broken wheat assessed as mortality at 85% EC wettable formulation applied as fumes for 24 hr measured after 14 days by fumigation bioassay. The format is functional.
Assay [16] relates to Plodia interpunctella. Nature of the assay: Insecticidal activity against larvae of Plodia interpunctella (Indian meal moth ) in wheat grain assessed as mortality at 85% EC wettable formulation applied as fumes for 24 hr measured after 7 days by fumigation bioassay. The format is functional.
Assay [17] relates to Tribolium confusum. The assay is described as follows: Insecticidal activity against larvae of Tribolium confusum (confused flour beetle) in broken wheat assessed as mortality at 4.3 microl/L air at 85% EC formulation applied as fumes for 72 hr measured after 14 days by fumigation bioassay. It counts as functional.
In assay [18] the test system is Tribolium confusum. The assay is described as follows: Insecticidal activity against adult Tribolium confusum (confused flour beetle) in broken wheat assessed as mortality at 85% EC dry formulation applied as fumes for 72 hr measured after 14 days by fumigation bioassay. It counts as functional.
Assay [19] deals with Tribolium confusum. Nature of the assay: Insecticidal activity against adult Tribolium confusum (confused flour beetle) in broken wheat assessed as mortality at 85% EC dry formulation applied as fumes for 24 hr measured after 14 days by fumigation bioassay. The format is functional.
In assay [20] the test system is Sitophilus oryzae. The assay is described as follows: Insecticidal activity against adult Sitophilus oryzae (rice weevil) in wheat grain assessed as mortality at 85% EC wettable formulation applied as fumes for 24 hr measured after 7 days by fumigation bioassay. The format is functional.
Assay [21] concerns Tribolium confusum. The assay is described as follows: Insecticidal activity against adult Tribolium confusum (confused flour beetle) in broken wheat assessed as mortality at 9.4 microl/L air at 85% EC formulation applied as fumes for 72 hr measured after 14 days by fumigation bioassay. The format is functional.
Assay [22] deals with Tribolium confusum. Nature of the assay: Insecticidal activity against larvae of Tribolium confusum (confused flour beetle) in broken wheat assessed as mortality at 85% EC dry formulation applied as fumes for 24 hr measured after 14 days by fumigation bioassay. The format is functional.
In assay [23] the test system is Tribolium confusum. The assay is described as follows: Insecticidal activity against third-instar larval stage of Tribolium confusum (confused flour beetle) assessed as enlarged mitochondria with reduced quantity of cristae, lower electron dense matrix, vacuolization and rarefaction of mitochondrial matrix in the epithelial cells of epidermal layer in the integument at LC20 applied as fumes measured after 24 hr by electron microscopic analysis. The following applies: Epithelial cell. It counts as functional, organism-based.

For assay [24], the system named is Plodia interpunctella. Nature of the assay: Insecticidal activity against larvae of Plodia interpunctella (Indian meal moth ) in wheat grain assessed as mortality at 85% EC dry formulation applied as fumes for 72 hr measured after 7 days by fumigation bioassay. The format is functional.
Assay [25] concerns Tribolium confusum. Nature of the assay: Insecticidal activity against third-instar larval stage of Tribolium confusum (confused flour beetle) assessed as morphological changes in anterior, posterior and middle regions of midgut with attatched malphigian tubules applied as vapours measured after 24 hr by light microscopy. The format is functional, organism-based.
Assay [26] concerns Tribolium confusum. The assay is described as follows: Insecticidal activity against adult Tribolium confusum (confused flour beetle) in broken wheat assessed as mortality at 85% EC wettable formulation applied as fumes for 72 hr measured after 14 days by fumigation bioassay. It counts as functional.
Assay [27] deals with Tribolium confusum. Nature of the assay: Insecticidal activity against third-instar larval stage of Tribolium confusum (confused flour beetle) assessed as numerous mitochondria with few cristae, reduced electron density, matrix rarefaction and vacuolization of the mitochondrial matrix in columnar cells of the midgut at LC20 applied as fumes measured after 24 hr by electron microscopic analysis. It counts as functional, organism-based.

Assay [28] concerns Tribolium confusum. The assay is described as follows: Insecticidal activity against adult Tribolium confusum (confused flour beetle) in broken wheat assessed as mortality at 4.3 microl/L air at 85% EC formulation applied as fumes for 72 hr measured after 14 days by fumigation bioassay. The format is functional.
Assay [29] concerns Tribolium confusum. The assay is described as follows: Insecticidal activity against adult Tribolium confusum (confused flour beetle) in broken wheat assessed as mortality at 85% EC wettable formulation applied as fumes for 24 hr measured after 14 days by fumigation bioassay. It counts as functional.
Assay [30] concerns Sitophilus oryzae. Nature of the assay: Insecticidal activity against adult Sitophilus oryzae (rice weevil) in wheat grain assessed as mortality at 85% EC dry formulation applied as fumes for 72 hr measured after 7 days by fumigation bioassay. The format is functional.
The test system of assay [31] is Tribolium confusum. Nature of the assay: Insecticidal activity against third-instar larval stage of Tribolium confusum (confused flour beetle) assessed as numerous mitochondria with few cristae, reduced electron density, matrix rarefaction and vacuolization of the mitochondrial matrix in regenerative nidi cells of the midgut at LC20 applied as fumes measured after 24 hr by electron microscopic analysis. It counts as functional, organism-based.

Assay [32] relates to Tribolium confusum. Nature of the assay: Insecticidal activity against larvae of Tribolium confusum (confused flour beetle) in broken wheat assessed as mortality at 5 mg/l applied as fumes for 72 hr measured after 14 days by fumigation bioassay. The following applies: in Triticum aestivum.
Assay [33] has as its system Sitophilus oryzae. Nature of the assay: whole plant or invertebrate. The following applies: in Triticum aestivum.
For assay [34], the system named is Tribolium confusum. The assay is described as follows: Insecticidal activity against adult Tribolium confusum (confused flour beetle) in broken wheat assessed as mortality at 5 mg/l applied as fumes for 72 hr measured after 14 days by fumigation bioassay. The following applies: in Triticum aestivum.

For the molecule `C=CCN=C=S` [ALLYL ISOTHIOCYANATE], the mortality in the assay with Tribolium confusum [1] is 100%; in the assay with Sitophilus oryzae [2] it was 100%; in the assay with Tribolium confusum [4], 93%; with Sitophilus oryzae [10], 100%; in the assay on Tribolium confusum [12], 100%; with Sitophilus oryzae [14] it was 100%. Also, the mortality with Tribolium confusum [17] was 48%; in the assay with Tribolium confusum [21], 100%; in the assay on Tribolium confusum [28], 70%. The LC50 is given as 2.6 uL/L with Sitophilus oryzae [3]; 2.3 uL/L in the assay with Plodia interpunctella [5]; 4.7 uL/L in the assay with Tribolium confusum [6]; 2.2 uL/L with Sitophilus oryzae [7]; 3.5 uL/L with Plodia interpunctella [9]; 5.5 uL/L in the assay with Tribolium confusum [11]. In addition, the LC50 in the assay with Tribolium confusum [15] is given as 7.1 uL/L; in the assay on Plodia interpunctella [16], 3.7 uL/L; in the assay on Tribolium confusum [18], 3.7 uL/L; in the assay on Tribolium confusum [19], 4.7 uL/L; with Sitophilus oryzae [20], 2.7 uL/L; in the assay on Tribolium confusum [22], 7.3 uL/L. For the same molecule, the LC50 was found to be 2.2 uL/L with Plodia interpunctella [24], 4.2 uL/L in the assay on Tribolium confusum [26], 5.5 uL/L in the assay on Tribolium confusum [29] and 2 uL/L with Sitophilus oryzae [30]. In addition, the LC95 in the assay with Sitophilus oryzae [3] was found to be 4.7 uL/L; with Plodia interpunctella [5], 5 uL/L; in the assay on Tribolium confusum [6] it was 9.5 uL/L; with Sitophilus oryzae [7], 3.7 uL/L; in the assay on Plodia interpunctella [9], 7.7 uL/L; in the assay on Tribolium confusum [11] it was 9.9 uL/L. The LC95 is 8.7 uL/L in the assay with Plodia interpunctella [16]; 6.6 uL/L in the assay with Tribolium confusum [18]; 9.3 uL/L in the assay with Tribolium confusum [19]; 4.2 uL/L in the assay with Sitophilus oryzae [20]; 4.1 uL/L with Plodia interpunctella [24]; 7.8 uL/L with Tribolium confusum [26]. The LC95 in the assay on Tribolium confusum [29] is given as 12.8 uL/L; in the assay on Sitophilus oryzae [30], 3.4 uL/L. The outcome in the assay with Tribolium confusum [8], in the assay with Tribolium confusum [13], with Tribolium confusum [23], in the assay with Tribolium confusum [25], with Tribolium confusum [27] and with Tribolium confusum [31] was Active.
On to `P` [PHOSPHINE], for which the mortality at 5 µg/mL with Tribolium confusum [32], in the assay on Sitophilus oryzae [33] and with Tribolium confusum [34] was 100% throughout.

The values above are taken from ChEMBL document CHEMBL3045627, “Effect of allylisothiocyanate on Sitophilus oryzae, Tribolium confusum and Plodia interpunctella: Toxicity and effect on insect mitochondria” (2012).
